Here are results for four molecules from patent US12599645B2, “Antibodies which bind to lysophosphatidic acid receptor 1 (LPAR1)” (DJS ANTIBODIES LTD, priority 2021, dated 2026).

Usually inhibition stands for the relative decrease from the control value, in per cent.

Like-named read-outs stand apart in the source and are kept apart here.

In one data set the test system is diabetic nephropathy. Particulars: 8 weeks, cited from earlier work.
Data set [1] deals with idiopathic pulmonary fibrosis. The following applies: cited from earlier work.
The test system of data set [2] is renal fibrosis after UUO surgery. Put plainly: Unilateral ureteral obstruction (UUO) efficacy model of renal fibrosis. The class given is in vivo, Hartley guinea pigs. The procedure:
Unilateral ureteral obstruction (UUO) is a well-characterized disease model for renal fibrosis. The UUO model encompasses key pathophysiological features of chronic kidney disease; tubular necrosis and inflammatory cell infiltration within a relatively short period.
Two unilateral ureteral obstruction (UUO) model efficacy studies were carried out in six-week old female Hartley guinea pigs. On Day 0, UUO surgery was performed. BMS-986020 was administered orally at a dose level of 30 mg/kg in a volume of 5 mL/kg twice daily at from Day −1 to 9. Isotype control and anti-LPAR1 antibody was intraperitoneally administered at a dose level of 6 mg/kg (low) or 20 mg/kg (high) in a volume of 10 mL/kg at Day −1, Day 0, Day 3 and Day 6. The viability, clinical signs, behaviour and individual body weight was monitored daily.
The animals were sacrificed at Day 10. The ligated left kidney and right kidney weight were measured at sacrifice.
Hydroxyproline is an amino acid, making up around 14% of collagen and acts as an important indicator of the severity of fibrosis. To quantify kidney hydroxyproline content, frozen posterior right section of left kidney samples were processed by an alkaline-acid hydrolysis method. AC buffer (2.2M acetic acid/0.48M citric acid) was added to the samples, followed by centrifugation to collect the supernatant. A standard curve of hydroxyproline was constructed with serial dilutions of trans-4-hydroxy-L-proline (Sigma-Aldrich, USA) starting at 16 μg/mL. The prepared samples and standards were mixed with chloramine T solution (Nacalai Tesque Inc., Japan) and incubated for 25 minutes at room temperature. The samples were then mixed with Ehrlich's solution and heated at 65° C. for 20 minutes to develop the colour. After samples were cooled on ice and centrifuged to remove precipitates, the optical density of each supernatant was measured at 560 nm. The concentrations of hydroxyproline were calculated from the hydroxyproline standard curve. Protein concentrations of kidney samples were determined using a BCA protein assay kit (Thermo Fisher Scientific, USA) and used to normalize the calculated hydroxyproline values. Kidney hydroxyproline contents were expressed as μg per mg protein.
The left kidney was fixed in Bouin's solution and embedded in paraffin. For PAS staining, sections were cut from paraffin blocks and stained with Schiff's reagent (FUJIFILM Wako pure chemical corporation, Japan) according to the manufacturer's instructions. To visualize collagen deposition, kidney sections were stained using picro-Sirius red solution (FUJIFILM Wako pure chemical corporation). For quantification of interstitial and medulla fibrosis area, bright field images in the corticomedullary region were captured using a digital camera (DFC295) at 200-fold magnification, and the positive areas in 5 fields/section were measured using ImageJ software (National Institute of Health, USA).

Another data set deals with LPAR1 (Homo sapiens, UniProt Q92633). Nature of the data set: BRET assay (G protein activation and βArrestin 2 biosensors). Type of data set: cell-based. Also noted: expressed in transfected cells; host or cells: HEK293 (transient, PEI). The procedure:
Using polyethylenimine (PEI) transfection agent at a 3:1 ratio, HEK293 cells were co-transfected in suspension with hLPAR1 and one of the following biosensors: G protein activation sensors (Gαi2, Gα13, and Gαq) and the βArrestin 2-PM recruitment biosensor (+GRK2). Cells were directly seeded in 96-well plates immediately following transfection at a density of 35,000 cells/well. 48 hours post-transfection, BRET experiments were performed in both agonist and allosteric/antagonist mode. Using a plate washer, culture medium was aspirated and replaced with 30 μl of Hank's Balanced Salt Solution buffer (HBSS). Plates were equilibrated at room temperature for 60 minutes. For agonist testing, serial dilutions of the antibodies were performed in PBS and then added to each well. Antibodies were assayed at 12 concentrations in technical duplicates. Small molecules were added to each relevant well. Small molecules were assayed at 22 concentrations with each biosensor. Cells were then incubated with the antibodies or small molecules at room temperature for 60 or 10 minutes, respectively. 10 μl of 10 μM e-Coelenterazine Prolume Purple (Nanolight) was then added to each well. Cells were incubated at room temperature for an additional 10 minutes. BRET readings were then collected with a 0.4 sec integration time on a plate reader (filters: 400 nm/70 nm, 515 nm/20 nm). For allosteric testing (after agonist testing), an EC75 of the endogenous ligand (oleoyl-LPA) was added to each well already containing antibody or small molecule. Cells were incubated at room temperature for an additional 10 minutes. BRET readings were then collected with a 0.4 sec integration time on a plate reader (filters: 400 nm/70 nm, 515 nm/20 nm). BRET signals were determined by calculating the ratio of light emitted by GFP-acceptor (515 nm) over light emitted by luciferase-donor (400 nm). All BRET ratios were standardized with pre-established BRET values for positive and negative controls. The standardized BRET ratio is referred to as universal BRET (uBRET). Resulting dose-response curves were fitted using the three- or four-parameter logistic non-linear regression model in GraphPad Prism 9.
The inhibition characteristics of Antibody 12 were investigated by Bioluminescence Resonance Energy Transfer (BRET, method 1.15) and compared to a small molecule LPAR1 inhibitor of the prior art (BMS-986020), see FIG. 13. The upper lines are values recorded with LPA present and the lower lines are values recorded with LPA not present. […] This can only happen if the ligand (LPA) is also interacting with the receptor at the same time to enable some signalling. […]
For orientation: Bioluminescence resonance energy transfer reports proximity on the nanometre scale.

The subject of data set [3] is hepatic bile acid efflux transporters (e.g., BSEP, MRP3 and MRP4). The following applies: cited from earlier work.
Data set [4] addresses T1, human LPAR1 (Homo sapiens, UniProt Q92633, Q286A).
T1 construct: HA; expressed in transfected cells; host or cells: CHO-K1 (transient)
Put plainly: In vitro epitope analysis: transient-transfection CIFAT on human LPAR1 with residue substitutions to alanine. Type of data set: binding. The following applies: human LPAR1 position 286 (Q, ECD3) substituted to alanine. As to the method: (§1) CHO-K1 cells were seeded in clear 96-well plates at 20,000 cells per 200 μL full growth medium and incubated for 24 hours at 37° C. The following day, in a sterile tube, 0.0309 uL/well PEI (Generon, MW 160,000) was diluted into 10 uL/well transfection medium (DMEM supplemented with 2 mM L-glutamine and Penicillin-Streptomycin). The diluted PEI was added to 100 ng/well DNA encoding the target protein (human LPAR1 (SEQ ID NO: 62) unless otherwise stated), before vortexing immediately and incubating the mixture for 10 minutes at room temperature. 200 μL/well full growth medium was added to the PEI-DNA mixture, then medium in wells was taken off and 200 ul full growth medium/PEI/DNA mixture was added in the wells of the adherent cell plate. […] After washing and cell fixation with 4% PFA, the binding of the antibodies was detected using a goat anti-human Alexa Fluor 488 detection antibody (Invitrogen), incubated for 1 hour at room temperature. Fluorescence at 488 nm was measured using a BMG LABTECH ClarioStar plate reader and microscopy images were taken at 10× magnification.
(§2) Based on the epitope analysis presented in FIGS. 3 and 4, constructs were designed to test the important residues/interaction regions predicted in silico. […] CHO-K1 cells were transiently transfected with these plasm ids and the binding of an anti-LPAR1 mAb assessed to each of these receptor variants using protocol 1.11. […]

For data set [5], the target named is T2, human LPAR1 (Homo sapiens, UniProt Q92633, N35A).
T2 construct: HA; expressed in transfected cells; host or cells: CHO-K1 (transient)
The data set is described as above. Type of data set: binding. The following applies: human LPAR1 position 35 (N, N-terminus) substituted to alanine; binding of mAb with VH SEQ ID NO: 369, VL SEQ ID NO: 39. As to the method:
as §1, §2

[6] abbreviates: Study 1, BMS-986020 30 mg/kg oral twice daily, antibody 20 mg/kg i.p., Day 10.

Chain of LPAR1 (Q92633 whole entry): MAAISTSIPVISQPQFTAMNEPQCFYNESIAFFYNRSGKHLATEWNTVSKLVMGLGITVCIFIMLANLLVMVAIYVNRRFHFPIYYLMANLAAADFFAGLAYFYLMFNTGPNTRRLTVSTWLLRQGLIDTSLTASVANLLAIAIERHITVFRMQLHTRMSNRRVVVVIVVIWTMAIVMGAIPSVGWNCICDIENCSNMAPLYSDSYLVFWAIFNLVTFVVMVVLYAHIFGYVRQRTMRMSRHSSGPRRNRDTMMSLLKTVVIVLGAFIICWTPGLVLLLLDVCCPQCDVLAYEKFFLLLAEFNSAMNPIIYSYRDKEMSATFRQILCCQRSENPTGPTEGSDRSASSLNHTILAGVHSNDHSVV
T1 sequence (Q92633 whole entry Q286A): as the sequence (Q92633 whole entry) above, with Q286A counted along it
T2 sequence (Q92633 whole entry N35A): as the sequence (Q92633 whole entry) above, with N35A counted along it

Regarding `Cc1noc(-c2ccc(-c3ccc(CC(=O)O)cc3)cc2)c1NC(=O)O[C@H](C)c1ccccc1` [AM095], the “24 h albuminuria vs untreated controls, reduction” value with diabetic nephropathy (STZ-induced (early disease model), Lee J H et al. (2019)) is reported as approximately 30% reduction.
Regarding `Cc1noc(-c2ccc(-c3ccc(C4(C(=O)O)CC4)cc3)cc2)c1NC(=O)O[C@H](C)c1ccccc1` [BMS-986020], the hepatobiliary toxicity entry in data set [1] (compound-specific, not mediated via antagonism of LPAR1) is recorded as “off-target hepatobiliary toxicity”. The “efficacy in patients with idiopathic pulmonary fibrosis” value in data set [1] (human, in vivo) is reported as “showed efficacy”. For the same molecule, the “cortical fibrosis (histological picrosirius staining)” value in data set [2] (setting [6]) is given as “reduced cortical fibrosis”. The kidney hydroxyproline entry in data set [2] (setting [6]) was “No observable difference”; in data set [2] (Study 2, BMS-986020 30 mg/kg oral vs vehicle, antibody 20 mg/kg (high) i.p. vs isotype antibody), “trend towards reduced hydroxyproline”. Besides, the histological picrosirius staining result in data set [2] (Study 2) was “No observable difference”. The mode of inhibition entry at LPAR1 (G13 biosensor) is given as “competitive inhibitor”. On LPAR1 (interaction of G-protein G13 with the GPCR, in the presence of LPA), the inhibition is reported as 100%. Also, the “binding to hepatic bile acid efflux transporters” value in data set [3] was “off-target binding”.
Turning to `Cc1noc(-c2ccc(CSCCC(=O)O)cc2)c1NC(=O)OC(C)c1ccccc1Cl` (stereo not shown) [Ki16425], the “24 h albuminuria vs untreated controls, reduction” value in the data set on diabetic nephropathy (db/db (moderate model), Li et al. (2017)) was approximately 30%.

B1: anti-LPAR1 mAb: mAb of the in vitro epitope analysis; VH of SEQ ID NO: 369 and VL of SEQ ID NO: 39 (antibody, V domains shown)
VH: QVQLVQSGSELKKPGASVKVSCKASGYTFTSSGISWVRQAPGQGLEWMGEILPRSGYTNYNQGFTGRFVFSADKSVSTAYLQISSLKAEDTAVYYCARDFASARYAMDYWGQGTTVTVSS
VL: SIQMTQSPSSLSASVGDRVTITCQASQSVRYNVAWYQQKPGKAPKLLIYYASNRYTGVPSRFSGSGSGTDFTFTISSLQPEDIATYFCQHHYSSPLTFGGGTKLEIK
modifications: REGION 1..120: note = >huVH4_Q61A97A99G104
As to B1, the Epitope residue entry in the data set with human LPAR1 [4] and with human LPAR1 [5] was “Inconclusive” each time.
